Measurements as given in patent publication US6596707B2, “Monovalent saccharides and uses thereof” (priority 2001, dated 2003).

Key:
[1] = Pharmacokinetics of globotriose in mice after IV or oral administration
[2] = molecular target: Shiga-like toxin II (SLT II) (Escherichia phage 933W, UniProt P09386); type: cell-based, E. coli O157:H7
[3] = molecular target: Shiga-like toxin I (SLT I) (Bacteriophage H30, UniProt P69178)
[4] = Toxicity of globotriose administered to mice (previous pharmacokinetic studies)

Sequence of Shiga-like toxin I (SLT I) (P69178 whole entry, looked up): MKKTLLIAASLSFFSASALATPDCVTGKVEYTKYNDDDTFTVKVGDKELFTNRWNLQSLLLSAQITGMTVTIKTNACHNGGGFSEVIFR
Sequence of Shiga-like toxin II (SLT II) (P09386 whole entry, looked up): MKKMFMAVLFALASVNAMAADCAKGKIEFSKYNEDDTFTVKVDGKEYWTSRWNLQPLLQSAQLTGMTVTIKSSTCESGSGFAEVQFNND

SMILES: OC[C@H]1O[C@H](O[C@@H]2[C@H](O)[C@@H](O)[C@H](O[C@H]3[C@H](O)[C@@H](O)C(O)O[C@@H]3CO)O[C@@H]2CO)[C@H](O)[C@@H](O)[C@H]1O (stereo partly drawn) [globotriose, galactose α1,4 galactose β1,4 glucose]
- clearance kinetics ([1]; IV administered): bi-exponential clearance kinetics
- time over which excreted through the kidneys ([1]; IV administered): > 24 h
- bioavailable (oral dose crossed into circulation) ([1]; orally administered): approximately 10%
- excreted in the urine, time post-dose ([1]; orally administered): up to 48 hours
- fate of the majority of orally administered dose ([1]; orally administered): excreted into the feces unmetabolized
- kinetics ([1]; orally administered): bi-exponential kinetics
- inhibition of cell death from SLT II [2]: 8%
- inhibition of cell death from SLT I [3]: 52%
- reduction of cytotoxicity (SLT I), toxin pre-attached [3]: 33%
- toxic effects after intravenous administration ([4]; intravenously 333 mg/kg): no toxic effects
- toxic effects after oral administration ([4]; orally 3333 mg/kg): no toxic effects
